Experimental data published in ChEMBL document CHEMBL1201862, “PubChem BioAssay data set” (2004).
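Exposure lasted 48 hours, with cells grown in 96-well plates and compounds tested at five concentrations. The concentration for 50% growth inhibition is given as GI50.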 Active and inactive are the calls of the source. No stated cut-off is given here; in the data, active = GI50 up to about 1.1 µM and inactive = higher.

Experiments:
Test in all cases: inhibition of tumour cell growth, NCI panel, 48 h
[1] = tested on: HT-29
[2] = tested on: NCI-H460
[3] = tested on: SF-268
[4] = tested on: UACC-257
[5] = tested on: SK-OV-3
[6] = tested on: HOP-92
[7] = tested on: HCC 2998
[8] = tested on: Malme-3M
[9] = tested on: OVCAR-3
[10] = tested on: UO-31
[11] = tested on: NCI-H522
[12] = tested on: CAKI-1
[13] = tested on: NCI-H226
[14] = tested on: SN12C
[15] = tested on: LOX IMVI
[16] = tested on: RXF 393

Measured: GI50

O=C1OC(=O)C2C1C1C(c3ccccc3)=C(c3ccccc3)C2(O)C2C(=O)OC(=O)C12 (stereo not drawn)
inactive: [1] 46.9 µM | [2] > 100 µM | [3] > 100 µM | [4] > 100 µM | [5] > 100 µM | [6] 65.6 µM | [7] > 100 µM | [8] > 100 µM | [9] > 100 µM | [10] > 100 µM | [11] 68.7 µM | [12] > 100 µM | [13] > 100 µM | [14] 96.2 µM

Cc1nc2nn(C)cc2c(=O)n1/N=C/c1ccccc1
inactive: [1] > 100 µM | [2] > 100 µM | [3] > 100 µM | [4] > 100 µM | [5] > 100 µM | [15] > 100 µM | [7] > 100 µM | [8] > 100 µM | [9] > 100 µM | [10] > 100 µM | [11] > 100 µM | [13] > 100 µM | [16] > 100 µM | [14] > 100 µM

O=C1C[C@@H]2[C@@H](CCC23CCCC3)N1
inactive: [1] > 100 µM | [2] > 100 µM | [3] > 100 µM | [4] > 100 µM | [5] > 100 µM | [15] > 100 µM | [7] > 100 µM | [8] > 100 µM | [9] > 100 µM | [10] > 100 µM | [11] > 100 µM | [12] > 100 µM | [13] > 100 µM | [16] > 100 µM | [14] > 100 µM

Cc1ccc(NC(=O)CC/C(CC(=O)C(C)(C)C)=N/NC(=O)C(N)=O)cc1C
inactive: [1] > 100 µM | [2] > 100 µM | [3] > 100 µM | [4] > 100 µM | [5] > 100 µM | [6] > 100 µM | [7] > 100 µM | [8] > 100 µM | [9] > 100 µM | [10] > 100 µM | [11] > 100 µM | [12] > 100 µM | [13] > 100 µM | [16] > 100 µM | [14] > 100 µM

Cc1c(C)n(COCCO)c2ncnc(N)c12
inactive: [1] > 100 µM | [2] > 100 µM | [3] > 100 µM | [5] > 100 µM | [6] > 100 µM | [7] > 100 µM | [9] > 100 µM | [10] > 100 µM | [11] > 100 µM | [12] > 100 µM | [13] > 100 µM | [16] > 100 µM | [14] > 100 µM

C[C@]12CCC3[C@@H](CC[C@@H]4c5nonc5CC[C@]34C)C1C/C(=N/O)C2=O (stereo partly drawn)
inactive: [1] > 100 µM | [2] > 100 µM | [3] 11.2 µM | [4] > 100 µM | [5] 38.8 µM | [6] 46.5 µM | [15] 11.2 µM | [8] > 100 µM | [9] 39.7 µM | [10] 5.41 µM | [11] 24.6 µM | [12] 4.34 µM | [13] > 100 µM | [16] 14.1 µM | [14] > 100 µM

O=C1C=CC(=O)c2c1ccc1c3ccccc3n(-c3ccccn3)c21
inactive: [1] 28.4 µM | [2] > 100 µM | [3] 31.7 µM | [4] 18.5 µM | [5] > 100 µM | [6] 15.6 µM | [7] > 100 µM | [8] 17.8 µM | [9] 24.7 µM | [10] 19.1 µM | [11] 4.15 µM | [13] 13.2 µM | [14] 55.1 µM

CCOc1ccc2c(c1)[n+]([O-])c(-c1ccc(Br)cc1)c(N)[n+]2[O-]
inactive: [1] 64.4 µM | [2] 47.3 µM | [3] 42.8 µM | [4] 59.4 µM | [5] > 100 µM | [15] > 100 µM | [7] > 100 µM | [8] 55.6 µM | [9] 48.1 µM | [10] 67.3 µM | [11] 16.6 µM | [12] 27.2 µM | [13] > 100 µM | [14] 71 µM

CN(C)c1ccc(/C=N\N2C(=O)c3ccccc3C2=O)cc1
inactive: [1] > 100 µM | [2] > 100 µM | [3] > 100 µM | [4] > 100 µM | [6] > 100 µM | [15] > 100 µM | [7] > 100 µM | [8] > 100 µM | [9] > 100 µM | [10] > 100 µM | [12] > 100 µM | [13] > 100 µM | [16] > 100 µM | [14] > 100 µM

C[C@]12Cc3conc3C(O)=C1CC[C@@H]1C2CC[C@@]2(C)C1CC[C@]2(C)O (stereo partly drawn)
inactive: [1] 20.6 µM | [2] 13.6 µM | [3] 28.8 µM | [4] 22.4 µM | [5] 24.3 µM | [6] 32.4 µM | [15] 1.79 µM | [7] 21.1 µM | [8] 18.5 µM | [9] 18.4 µM | [10] 16 µM | [13] 14.8 µM | [16] 18.9 µM | [14] 33 µM

C[C@]12CCC3[C@@H](CC[C@@H]4c5nonc5CC[C@]34C)C1CCC2=O (stereo partly drawn)
inactive: [1] 16.5 µM | [2] 19.2 µM | [3] 33.6 µM | [4] 18 µM | [5] 36.7 µM | [6] 20.8 µM | [15] 19.6 µM | [8] 23.3 µM | [9] 17.1 µM | [10] 11.3 µM | [11] 16.2 µM | [12] 22.9 µM | [13] 20 µM | [16] 26.2 µM | [14] 21.5 µM

COC(=O)C1=C(C(=O)OC)C2(C(=O)OC)OC1(OC)C(C1(C(=O)OC)C(C(=O)OC)=C1C(=O)OC)=C2C(=O)OC (stereo not drawn)
inactive: [1] > 100 µM | [2] > 100 µM | [3] > 100 µM | [4] > 100 µM | [5] > 100 µM | [6] > 100 µM | [15] > 100 µM | [7] > 100 µM | [8] > 100 µM | [9] > 100 µM | [10] > 100 µM | [11] > 100 µM | [13] > 100 µM | [16] > 100 µM | [14] > 100 µM

O=S1(=O)NN=C(NCc2ccc(Cl)cc2)c2ccccc21
inactive: [1] > 100 µM | [2] > 100 µM | [3] > 100 µM | [4] > 100 µM | [6] 35.3 µM | [15] 69 µM | [7] > 100 µM | [8] > 100 µM | [9] > 100 µM | [10] > 100 µM | [12] > 100 µM | [13] > 100 µM | [16] 30.5 µM | [14] > 100 µM

C=CC1=CSNN1
inactive: [1] > 100 µM | [2] > 100 µM | [3] > 100 µM | [4] > 100 µM | [5] > 100 µM | [6] > 100 µM | [15] > 100 µM | [7] > 100 µM | [8] > 100 µM | [9] > 100 µM | [10] > 100 µM | [11] > 100 µM | [12] > 100 µM | [16] > 100 µM | [14] > 100 µM

COC(=O)C1=Cc2cn(S(=O)(=O)c3ccc(C)cc3)c3cccc(c23)C(C=C(C)C)N1C(C)=O (stereo not drawn)
inactive: [1] 27.9 µM | [3] 93.5 µM | [4] 11.3 µM | [5] > 100 µM | [6] 12.7 µM | [15] 71.1 µM | [7] > 100 µM | [8] 16.8 µM | [9] 9.14 µM | [10] 26.1 µM | [11] 5.83 µM | [12] 12.6 µM | [13] > 100 µM | [16] 13.8 µM | [14] 14.1 µM

Nc1ccn(CCCC(c2ccccc2)P(=O)(O)O)c(=O)n1 (stereo not drawn)
inactive: [1] > 100 µM | [2] > 100 µM | [3] > 100 µM | [4] > 100 µM | [5] > 100 µM | [6] 91.4 µM | [15] > 100 µM | [7] > 100 µM | [8] > 100 µM | [9] > 100 µM | [10] > 100 µM | [11] > 100 µM | [12] > 100 µM | [14] > 100 µM

Cc1[nH]c(O)nc1C(=O)c1ccc(-n2ccnc2)cc1
inactive: [1] > 100 µM | [2] > 100 µM | [3] > 100 µM | [4] > 100 µM | [5] > 100 µM | [15] > 100 µM | [7] > 100 µM | [8] > 100 µM | [9] > 100 µM | [10] > 100 µM | [11] > 100 µM | [12] > 100 µM | [13] > 100 µM | [16] > 100 µM | [14] > 100 µM

O=C(O)CN(c1ccc(F)cc1)S(=O)(=O)c1ccccc1
inactive: [1] > 100 µM | [2] > 100 µM | [3] > 100 µM | [4] > 100 µM | [5] > 100 µM | [6] > 100 µM | [15] > 100 µM | [8] > 100 µM | [9] > 100 µM | [10] > 100 µM | [11] > 100 µM | [12] > 100 µM | [13] > 100 µM | [16] > 100 µM | [14] > 100 µM

O=C1c2ccccc2C(=O)c2c(O)c(O)cc(O)c21 [PURPURIN]
inactive: [2] 34.5 µM | [3] 42.4 µM | [4] 49.4 µM | [5] 31.8 µM | [6] 25.2 µM | [15] 43.7 µM | [7] 32.7 µM | [8] 32.7 µM | [9] 22.4 µM | [10] 19 µM | [11] 33.6 µM | [12] 44 µM | [16] 21.7 µM | [14] 34.7 µM
